This note sets out measurements from the supplement of paper PMC5412046.

Test [1] deals with SB.mhdgc-1. As to the kind of experiment: viability at highest tested concentration (MAXR) relative to DMSO; higher = less cytotoxic. The conditions noted are these: SB.mhdgc-1 (hereditary c.1380delA CDH1 gastric cancer). The method in brief:
(§1)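 Viability values are normalised to DMSO and given either at the highest concentration or as trapezoidal area under the curve. The assay used 500 hereditary or sporadic patient-derived gastric cancer cells in 5 μL medium per 1536 well, dosed by pintool with 23 nL of compound in DMSO at 11 threefold-diluted concentrations. CellTiter-Glo was added 48 h later for 30 min at room temperature, followed by luminescence reading on a ViewLux.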

For test [2], the system named is SB.msgc-1. Described as above. The note with it: SB.msgc-1 (sporadic gastric cancer). The method in brief:
as §1

For test [3], the system named is SB.mhdgc-1. In words: area under the dose-response curve of % viability (trapezoidal, 11 doses) (% viability x log10 concentration); higher = less cytotoxic. The note with it: SB.mhdgc-1 (hereditary c.1380delA CDH1 gastric cancer). The method in brief: as §1
Test [4] relates to SB.msgc-1. Described as above. The conditions noted are these: SB.msgc-1 (sporadic gastric cancer). The method in brief: as §1

Structures can show the parent of a compound that is named as a salt.

In the case of `COc1cc(OC2CCN(C)CC2)ccc1Nc1ncc2c(n1)n(C1CCCC1)c(=O)n2C` [AZ-3146] (top concentration 46.0829 µM), the results for the viability in the test with SB.mhdgc-1 [1] and with SB.msgc-1 [2] were 1.98% and 26.1%, respectively. The “area under the dose-response curve” value in the test on SB.mhdgc-1 [3] stood at 430; in the test with SB.msgc-1 [4] it was 439.

For the compound `COc1ccc(/C=C\c2cc(OC)c(OC)c(OC)c2)cc1NC(=O)[C@H](N)CO` [Ombrabulin] (top concentration 46.0829 µM), the viability is 35.9% in the test with SB.mhdgc-1 [1] and 29% in the test on SB.msgc-1 [2]. Further, the results for the “area under the dose-response curve” value with SB.mhdgc-1 [3] and in the test with SB.msgc-1 [4] were 252 and 230, respectively.

As for `O=C(Oc1ccc([N+](=O)[O-])cc1)N1CCN(Cc2cccc(Oc3ccccc3)c2)CC1` [JZL-195] (top concentration 46.0829 µM), the results for the viability in the test on SB.mhdgc-1 [1] and in the test on SB.msgc-1 [2] were 31.1% and 37.7%, respectively. In addition, the figures for the “area under the dose-response curve” value in the test with SB.mhdgc-1 [3] and with SB.msgc-1 [4] were 445 and 495, respectively.

In the case of `CC(C)Nc1cc(C(F)(F)F)cc2nc(NC(=O)c3cccnc3)nn12` [S-99] (top concentration 46.0829 µM), the viability with SB.mhdgc-1 [1] amounted to 68%; with SB.msgc-1 [2] it was 84%. Further, the “area under the dose-response curve” value in the test with SB.mhdgc-1 [3] was determined as 526; with SB.msgc-1 [4], 523.

In the case of `CN[C@H]1[C@H](O[C@@H]2[C@H](O[C@@H]3[C@@H](O)[C@@H](O)[C@@H](NC(=N)N)[C@@H](O)[C@H]3NC(=N)N)O[C@H](C)[C@@]2(O)C=O)O[C@@H](CO)[C@@H](O)[C@H]1O` [Streptomycin sulfate] (top concentration 13.5607 µM), the viability in the test on SB.mhdgc-1 [1] turned out to be 137%; in the test on SB.msgc-1 [2] it was 126%. Also, the “area under the dose-response curve” value turned out to be 617 in the test on SB.mhdgc-1 [3] and 611 in the test with SB.msgc-1 [4].

As for `CN1CC(=O)\N=C1\NC(=O)NC2=CC(=CC=C2)Cl` [Fenobam] (top concentration 46.0829 µM), the viability is 37% with SB.mhdgc-1 [1] and 95.6% in the test with SB.msgc-1 [2]. The “area under the dose-response curve” value in the test with SB.mhdgc-1 [3] turned out to be 487; in the test with SB.msgc-1 [4], 570.

On to `COc1ncc(-c2ccc3nccc(-c4ccnnc4)c3c2)cc1N[S+](=O)([O-])c1ccc(F)cc1F` (top concentration 46.0829 µM), for which the viability stood at 15.4% in the test with SB.mhdgc-1 [1] and 26.7% in the test on SB.msgc-1 [2]. For the same compound, the “area under the dose-response curve” value with SB.mhdgc-1 [3] is 148; in the test on SB.msgc-1 [4], 257.

In the case of `COc1cc(N[S+](=O)([O-])c2ccc(N)cc2)nc(OC)n1` [Sulphadimethoxine] (top concentration 46.0829 µM), the viability with SB.mhdgc-1 [1] was 100%; with SB.msgc-1 [2], 111%. In addition, the “area under the dose-response curve” value in the test with SB.mhdgc-1 [3] was 490; with SB.msgc-1 [4] it was 585.

As to `CC(C)(S)[C@@H](N)C(=O)O` [Penicillamine] (top concentration 46.0829 µM), the viability worked out at 135% in the test on SB.mhdgc-1 [1] and 128% in the test on SB.msgc-1 [2]. The “area under the dose-response curve” value in the test with SB.mhdgc-1 [3] is 613; in the test on SB.msgc-1 [4], 571.

In the case of `COC(=O)C[C@](O)(CCCC(C)(C)O)C(=O)O[C@@H]1C(OC)=CC23CCCN2CCc2cc4c(cc2[C@H]13)OCO4` (stereo partly drawn) [Omacetaxine mepesuccinate] (top concentration 46.0829 µM), the viability with SB.mhdgc-1 [1] worked out at 97.7%; in the test with SB.msgc-1 [2], 64%. In addition, the figures for the “area under the dose-response curve” value in the test with SB.mhdgc-1 [3] and in the test on SB.msgc-1 [4] were 567 and 409, respectively.

As for `Cc1cc(Cl)ccc1OCCCC(=O)NO` [Droxinostat] (top concentration 46.0829 µM), the viability with SB.mhdgc-1 [1] came to 6.87%; with SB.msgc-1 [2], 15.1%. Besides, the “area under the dose-response curve” value in the test with SB.mhdgc-1 [3] was determined as 375; with SB.msgc-1 [4], 411.

For `Cc1cn2cc(C(=O)N(C)CCO)cc(N[C@@H]3CCOc4cccc(C)c43)c2n1` (top concentration 46.0829 µM), the figures for the viability in the test with SB.mhdgc-1 [1] and in the test with SB.msgc-1 [2] were 121% and 108%, respectively. For the same compound, the “area under the dose-response curve” value with SB.mhdgc-1 [3] stood at 576; in the test on SB.msgc-1 [4] it was 505.

Turning to `CCCc1cc(C(N)=S)ccn1` [Protionamide] (top concentration 46.0829 µM), the viability was 150% in the test with SB.mhdgc-1 [1] and 127% with SB.msgc-1 [2]. The figures for the “area under the dose-response curve” value in the test with SB.mhdgc-1 [3] and in the test on SB.msgc-1 [4] were 480 and 522, respectively.

Take `N=c1c2c(-c3ccccc3)c(-c3ccccc3)n(Cc3ccccc3)c2ncn1[C@H]1CC[C@H](O)CC1` (top concentration 46.0829 µM): the viability is 0.949% in the test with SB.mhdgc-1 [1] and 17.3% in the test with SB.msgc-1 [2]. Moreover, the “area under the dose-response curve” value was determined as 431 with SB.mhdgc-1 [3] and 434 in the test with SB.msgc-1 [4].

As for `O=C(O)CCCc1ccc(N(CCCl)CCCl)cc1` [Chlorambucil] (top concentration 46.0829 µM), the viability in the test with SB.mhdgc-1 [1] was 42%; in the test with SB.msgc-1 [2] it was 79.2%. Moreover, the “area under the dose-response curve” value in the test on SB.mhdgc-1 [3] worked out at 441; with SB.msgc-1 [4] it was 510.

Consider `COc1ccc(-c2nc3cc(C4=NNC(=O)CC4C)ccc3[nH]2)cc1` (stereo not drawn) [Pimobendan] (top concentration 46.0829 µM), for which the figures for the viability with SB.mhdgc-1 [1] and with SB.msgc-1 [2] were 131% and 106%, respectively. Besides, the figures for the “area under the dose-response curve” value in the test with SB.mhdgc-1 [3] and in the test on SB.msgc-1 [4] were 526 and 530, respectively.

On to `Cn1c(=O)c2c(ncn2CC(O)CO)n(C)c1=O` (stereo not drawn) [Dyphylline] (top concentration 46.0829 µM), for which the results for the viability in the test on SB.mhdgc-1 [1] and with SB.msgc-1 [2] were 117% and 103%, respectively. Besides, the “area under the dose-response curve” value in the test on SB.mhdgc-1 [3] amounted to 543; in the test with SB.msgc-1 [4], 537.

Regarding `C[C@@H](NC(=O)c1ncnc(N)c1Cl)c1ncc(C(=O)Nc2cc(C(F)(F)F)c(Cl)cn2)s1` [MLN-2480] (top concentration 46.0829 µM), the viability was found to be 71.9% in the test with SB.mhdgc-1 [1] and 48.3% in the test with SB.msgc-1 [2]. The “area under the dose-response curve” value with SB.mhdgc-1 [3] worked out at 543; in the test on SB.msgc-1 [4], 554.

Regarding `CC(=O)OCC(=O)[C@@]12\N=C(C)/O[C@@H]1C[C@H]3[C@@H]4CCC/5=C/C(=O)/C=C\[C@]5(C)[C@H]4[C@@H](O)C[C@]23C` [Deflazacort] (top concentration 46.0829 µM), the viability amounted to 97.3% in the test with SB.mhdgc-1 [1] and 105% with SB.msgc-1 [2]. Besides, the “area under the dose-response curve” value was determined as 489 with SB.mhdgc-1 [3] and 552 with SB.msgc-1 [4].

With `COc1cc([C@@H]2c3cc4c(cc3[C@@H](O[C@@H]3O[C@@H]5CO[C@@H](c6cccs6)O[C@H]5[C@H](O)[C@H]3O)[C@H]3COC(=O)[C@H]23)OCO4)cc(OC)c1O` [Teniposide] (top concentration 46.0829 µM), the viability worked out at 18.7% in the test on SB.mhdgc-1 [1] and 26.6% in the test on SB.msgc-1 [2]. Further, the “area under the dose-response curve” value was 243 with SB.mhdgc-1 [3] and 344 in the test on SB.msgc-1 [4].

For `c1ccc2[nH]c(-c3cscn3)nc2c1` [Thiabendazole] (top concentration 46.0829 µM), the viability stood at 66.9% with SB.mhdgc-1 [1] and 104% in the test with SB.msgc-1 [2]. For the same compound, the figures for the “area under the dose-response curve” value in the test with SB.mhdgc-1 [3] and in the test on SB.msgc-1 [4] were 469 and 487, respectively.

Regarding `C[C@]\1(CCS\C(=N1)N)C2=CC(=C(F)C=C2F)C3=CN=CN=C3` (top concentration 46.0829 µM), the viability in the test with SB.mhdgc-1 [1] was 33.3%; with SB.msgc-1 [2] it was 44.7%. Moreover, the “area under the dose-response curve” value in the test with SB.mhdgc-1 [3] amounted to 464; in the test on SB.msgc-1 [4] it was 500.

For orientation: viability means a read-out of living cells in per cent, often relative to untreated cells.
